Results on 6 compounds are retold here after patent US4753938A, “Condensed as-triazine derivatives” (Richter Gedeon Vegyeszeti Gyar Rt., priority 1983, dated 1988).

For data set [1], the system named is tetrabenazine ptosis on mice. In words: Antagonism of tetrabenazine ptosis on mice, p.o. The conditions noted are these: for ED50: Mus musculus, po, 0.5 h, 50 mg./kg. tetrabenazine i.p. 30 minutes later. The class given is in vivo. As for the experimental part:
(§1) (2) Antagonism of Tetrabenazine ptosis on mice and rats, p.o. […] The results are evaluated as follows: on the basis of all the measured data an average ptosis is calculated for each group and the deviation from the average of the control group is expressed in percents (inhibition). The ED50 values are calculated from the data thus obtained.

The test system of the next data set is reserpine ptosis on mice. In words: Antagonism of reserpine ptosis on mice, p.o. The conditions noted are these: for ED50: Mus musculus, po, 1 h, 60 minutes after 6 mg./kg. reserpine s.c. The class given is in vivo. As for the experimental part: (3) Antagonism of reserpine ptosis on mice, p.o. Animal groups consisting of 10 mice each are treated subcutaneously with 6 mg./kg. of reserpine. The test compound is administered orally after 60 minutes. The animals showing a ptosis are counted after 60 and 120 minutes. The evaluation is carried out as described in connection with the previous ptosis test No. 2.

Data set [2] deals with yohimbine toxicity on mice. In words: Potentiation of yohimbine toxicity on mice (method of Quinton). The class given is in vivo. The conditions noted are these: for ED50: Mus musculus, ip, read-out: ED50, potentiation of yohimbine toxicity; for Ther. index, potentiation of yohimbine toxicity: mice. As to the method: (5) Potentiation of yohimbine toxicity on mice
The tests are carried out according to the method of Quinton. Animal groups consisting of 10 mice each are treated with the test compound. After an hour a sublethal dose of yohimbine is administered intraperitoneally at a rate of 20 ml./kg. The killed animals are counted after 1 and 24 hours, respectively.

For data set [3], the system named is tetrabenazine ptosis on rats. In words: Antagonism of tetrabenazine ptosis on rats, p.o. The class given is in vivo. The conditions noted are these: Rattus norvegicus, po. As to the method: as §1
Another data set has as its system reserpine ptosis on rats. In words: Antagonism of reserpine ptosis on rats, p.o. The class given is in vivo. The note with it: Rattus norvegicus, po, 1 h, 60 minutes after 2.5 mg./kg. reserpine s.c. As to the method: (4) Antagonism of reserpine ptosis on rats, p.o. […] The animals showing ptosis are counted until the effect decreases. The evaluation is carried out as described in connection with the previous ptosis test (test 2).

Data set [4] in a line: Acute toxicity on mice, oral (LD50, Litchfield-Wilcoxon, 7 days observation). The note with it: mouse, in vivo. As for the experimental part:
(1) Acute toxicity on mice
The test is carried out on male and female white mice belonging to the CFLP strain and weighing 18-22 g. The test compound is administered orally and the animals are observed for a period of 7 days. In the groups for each dose half of the animals are male and the other half are female. The animals are kept in a plastic box (39×12×12 cm) on scrapings litter at room temperature. The mice receive standard fodder and tap water ad libitum. The toxicity data are determined by the method of Litchfield-Wilcoxon.
The test compounds are used in a suspension formed with 0.5% carboxymethyl cellulose.

For data set [5], the system named is aconitine-induced ECG changes in rats. In words: Antiarrhythmial effect on rats (aconitine, modified method of Marmo et al.). The class given is in vivo. The conditions noted are these: aconitine 75 μg./kg. i.v. As for the experimental part: (6) Antiarrhythmial effect on rats
The test is carried out according to the modified method of Marmo et al. The test animals are narcotized with ethyl urethane (1.2 g./kg. i.p.). Aconitine is administered intravenously in the form of a bolus injection in a dose of 75 μg./kg. The changes of ECG are followed in standard II outlet 5 minutes after the administration of aconitine. The changes observed are evaluated with the aid of a scale from 0 to 5 points. The test compound is administered either intravenously 2 minutes before the addition of aconitine, or orally 1 hour before the aconitine administration.

Data set [6] has as its system tremorine-induced tremor in mice. In words: Antitremorine effect on mice. The class given is in vivo. As to the method: (7) Antitremorine effect on mice 20 mg./kg. of tremorine are administered i.p. to mice whereupon after 45 minutes the induced characteristic tremor is registered. The test compounds are administered orally 1 hour before the addition of tremorine.

One may read the ED50 as the dose at which the effect has come halfway, by size or by number of responders. For the compound `CN(C)CCC=C1c2ccccc2CCc2ccccc21` [Amitriptyline, N,N-dimethyl-3-[dibenzo[a,d]-cycloheptadiene-5-ylidene]propylamine, reference compound], in data set [1], the “Ther. index, tetrabenazine ptosis” value stood at 19. Besides, in the data set with reserpine ptosis on mice, the “Ther. index, reserpine ptosis” value came out at 3.45 and the 50% effect level (ED50) was put at a dose of 65 mg/kg. In data set [2], the ED50 was found to be 12.5 mg/kg and the “Ther. index, potentiation of yohimbine toxicity” value (from here on “Ther. index, potentiation”) amounted to 18.
As usually defined, the LD50 is the dose at which mortality reaches 50%. Low values mean greater toxicity, high ones lower toxicity. For the compound `OC1(c2ccc(Cl)cc2)[N-]C=N[n+]2ccc3ccccc3c21` (stereo not drawn) [Compound A, 1-(4-chloro-phenyl)-1-hydroxy-as-triazino[6,1-a]isoquinoline-5-ium-2-(1H)-ide], in data set [1], the “Ther. index, tetrabenazine ptosis” value is listed as 3667. Further, the ED50 amounted to 0.15 mg/kg in data set [1]; 7 mg/kg in data set [3]; 28 mg/kg with reserpine ptosis on mice; 28 mg/kg in the data set with reserpine ptosis on rats; 5 mg/kg in data set [2]. Besides, the “Ther. index, reserpine ptosis” value with reserpine ptosis on mice was 19.6. Besides, the “Ther. index, potentiation” value in data set [2] turned out to be 110. The same compound had a 50% lethal dose (LD50) at 168 h in data set [4] of 550 mg/kg. For the same compound, the “Inhibition, antiarrhythmial effect” value in data set [5] (dose 1 mg./kg.) worked out at 39.6%.
For `COC1(c2ccc(Cl)cc2)[N-]C=N[n+]2ccc3ccccc3c21` (stereo not drawn) [Compound B, 1-(4-chloro-phenyl)-1-methoxy-as-triazino[6,1-a]isoquinoline-5-ium-2-(1H)-ide], the “Ther. index, tetrabenazine ptosis” value in data set [1] turned out to be 1680. The 50% effective dose (ED50) in data set [1] worked out at 0.25 mg/kg; in data set [6] (Mus musculus, po, p.o. 1 hour before tremorine 20 mg./kg. i.p.) it was 40 mg/kg; in data set [3] it was 0.6 mg/kg; with reserpine ptosis on mice, 1.5 mg/kg; in the data set with reserpine ptosis on rats, 34 mg/kg; in data set [2] it was 1.2 mg/kg. Also, the “Ther. index, antitremorine effect” value in data set [6] (p.o.) is on record as 10.5. In addition, in the data set on reserpine ptosis on mice, the “Ther. index, reserpine ptosis” value is recorded as 280.0. Besides, the “Ther. index, potentiation” value in data set [2] came out at 350. For the same compound, the LD50 at 168 h in data set [4] amounted to 420 mg/kg. Moreover, the “Inhibition, antiarrhythmial effect” value in data set [5] (dose 1 mg./kg.) is listed as 44.3%.
As for `O=c1nc(-c2ccc(Cl)cc2)c2c3ccccc3cc[n+]2[n-]1` [Compound C, 1-(4-chloro-phenyl)-as-triazino[6,1-a]isoquinoline-5-ium-2-(1H)-ide-3-one], in data set [1], the “Ther. index, tetrabenazine ptosis” value was 87 and the median effective dose (ED50) amounted to 23 mg/kg. Further, in data set [4] (mice, p.o., 7 days observation), the LD50 at 168 h turned out to be 2000 mg/kg.
As to `CCN(CC)CC(=O)Nc1c(C)cccc1C` [Lidocain, α-diethylamino-2,6-dimethyl-acetanilide, reference compound], the “Inhibition, antiarrhythmial effect” value in data set [5] (dose 4 mg./kg.) came out at 23.4%.
For `Clc1ccc(-c2ncn[n+]3ccc4ccccc4c23)cc1` [Reference compound D, 1-(4-chloro-phenyl)-as-triazino[6,1-a]isochinolinium-bromide, reference compound], the “Ther. index, tetrabenazine ptosis” value in data set [1] is 188. Further, in data set [6] (p.o. 1 hour before tremorine 20 mg./kg. i.p.), the “ED50, antitremorine effect” value is “inactive”. Also, the “Ther. index, reserpine ptosis” value with reserpine ptosis on mice is “below 5.0”. Moreover, the median effective dose (ED50) in the data set with reserpine ptosis on mice is more than 120 mg/kg; in the data set with reserpine ptosis on rats it was 60 mg/kg.
